# From US20240245677A1, “SELECTED COMPOUNDS FOR TARGETED DEGRADATION OF BRD9” (C4 THERAPEUTICS, INC., priority 2021, published 2024)
# Values joined by “and” are separate entries in the source; they are usually repeats but may differ in a detail not shown here. Equal entries are not always repeated. Where two headings read alike, the source gives them in different places.
# How the values were obtained:
# [1] = Mouse Hepatocyte Stability Assay; format: in vitro ADME; settings: CD-1, cryopreserved hepatocytes
# Protocol: (§1) The metabolic stability of Compound 1 was evaluated using cryopreserved hepatocytes from mice, rats, dogs, cynomolgus monkeys, and humans.
# (§2) 50 μL of 1 mM intermediate solutions for each test compound was prepared by adding 5 μL of 10 mM stock solution to 45 μL of a 1:1 mixture of water and acetonitrile. A 2 μM working stocks for each test compound were prepared in incubation media, InvitroGRO™ KHB (Bio IVT, Westbury, NY, USA), by adding 2 μL of 1 mM intermediate stock to 998 μL of incubation media.
# (§3) To thaw the hepatocytes, InvitroGRO™ HT thawing medium (BioIVT, Westbury, NY, USA) was prewarmed to 37° C., and 48 mL of warmed thawing medium was transferred to a sterile 50 mL conical tube. The hepatocyte vial was removed from the liquid nitrogen Dewar, and gently thawed in a water bath at 37° C. for 1-2 minutes, then the contents of the vial were emptied into a conical tube with prewarmed InvitroGRO HT medium. 1 mL of prewarmed InvitroGRO HT medium was added to each emptied hepatocyte vial to resuspend any remaining cells, and the contents were pipetted into the hepatocyte suspension. The tube containing the hepatocyte suspension was centrifuged at 50*g for 5 minutes. The supernatant was removed carefully, and the remaining pellet was resuspended by adding 1 mL of incubation media, InvitroGRO KHB, and gently shaking until there were no clumps.
# (§4) Cell viability was determined using the trypan blue method. 25 μL of hepatocyte cell suspension was added to a trypan blue (TB) solution (containing 775 μL InvitroGRO KHB and 200 μL of Trypan Blue). Cell count was taken using a hemacytometer.
# (§5) For mouse hepatocytes, 200 μL of hepatocytes (0.8×10^6 cells/mL) were added to the wells of a 48 well plate (Catalog No. 92048, TPP Techno Plastic Products AG, Trasadingen, Switzerland) and pre-incubated for 30 minutes at 37° C. For rat, dog, monkey, […], 200 μL of hepatocytes (2×10^6 cells/mL) were added to the wells of a 48 well plate (Catalog No. 92048, TPP Techno Plastic Products AG, Trasadingen, Switzerland) and pre-incubated for 30 minutes at 37° C.
# (§6) For all species of hepatocytes, once the pre-incubation period was complete, 200 μL of 2 μM working stock of test compound was added to the wells of the plate, and the plate was vortexed on a Vibramax™ 100 (P/N 544-21200-00, Heidolph Instruments GmbH & Co. KG, Schwabach, Germany) at 500 rpm in a 37° C. CO2 incubator (Model No. 51026280, ThermoFisher Scientific, Waltham, MA, USA). At each time point of 0, 15, 30, 60, 90, and 120 minutes, 50 μL of incubation mixture was precipitated with 200 μL of acetonitrile containing internal standard.
# (§7) At the end of the experiment, the samples were centrifuged at 4000 rpm for 10 minutes. The supernatant was collected and diluted with an equal amount of water, and vortexed for 5 minutes at 900 rpm in MixMate® (Model No. 5353, Eppendorf SE, Hamburg, Germany).
# (§8) The supernatant samples were submitted for LC-MS/MS analysis.
# (§9) Calculations of the results included the following: […]
# [2] = test system: cryopreserved hepatocytes from CD-1 mice; assay: Mouse Hepatocyte Stability Assay; format: in vitro ADME
# Protocol: as §1, §2, §3, §4, §5, §6, §7, §8, §9
# [3] = target: T1, CRBN-DDB1 (Homo sapiens, UniProt Q96SW2); assay: Fluorescence polarization competition binding assay, CRBN-DDB1; settings: FP competition
# T1 construct: His; purchased Wuxi Biortus Biosciences Co., Ltd
# Protocol: Fluorescence polarization (FP) competition experiments were used to determine the binding affinity of Compound 1 to purified CRBN-DDB1 protein.
# Human Histidine (His) CRBN and non-tag DDB1 (CRBN-DDB1 (5.64 mg/mL in 25 mM HEPES, 300 mM NaCl, 1 mM TCEP, pH 7.5)) was purchased from Wuxi Biortus Biosciences Co., Ltd. (Jiangsu, China) and stored at −80° C. until use. Potent CRBN-DDB1 ligand was chemically labeled with the commercially available fluorophore Alexa Fluor™ 647 (Invitrogen, Waltham, MA, USA) following manufacturer's instructions. Fluorescently labelled CRBN-DDB1 binding compound at 0.3 mM in DMSO was stored at −20° C.
# The determination of the binding constant (Kd) of Compound 1 to CRBN-DDB1 was carried out using an established, sensitive and quantitative in vitro fluorescence polarization (FP) binding assay (Nasir & Jolley, 1999). […]
# A 20 μL mixture containing 150 nM CRBN-DDB1 and 5 nM probe dye in 50 mM HEPES, pH 7.4, 200 mM NaCl, 1 mM TCEP and 0.05% Pluronic Acid F-127 was added to wells containing compound and incubated at room temperature for 1.5 hours. […] Matching control plates excluding CRBN-DDB1 were used to correct for background fluorescence (Shapiro et al., 2009). Plates were read on an EnVision® multimode plate reader (Catalog No. 2104-0010, Perkin Elmer Inc., Dumfries, VA, USA) with Cy5 polarization filters and mirror. […]
compound,measurement,setting,value
"COc1cc(-c2cn(C)c(=O)c(C)c2C)cc(OC)c1CN1CC[C@H](N2CCN(c3ccc(N[C@H]4CCC(=O)NC4=O)cc3F)CC2)C(F)(F)C1 [Compound 1, (S)-3-((4-(4-((S)-1-(2,6-dimethoxy-4-(1,4,5-trimethyl-6-oxo-1,6-dihydropyridin-3-yl)benzyl)-3,3-difluoropiperidin-4-yl)piperazin-1-yl)-3-fluorophenyl)amino)-piperidine-2,6-dione]",half-life at 1 µM,[1],> 2 h
same,hepatocyte CLint at 1 µM,[1]; read-out: CL int cells,4.26 µL/min/1e6 cells
same,CLh int in vivo,[2],44.94 mL/min/Kg body wt.
same,CLhb scaled well stirred,[2],30.0 mL/min/kg body wt.
same,Kd,"[3]; each occasion in duplicate, read-out: Kd, individual test occasion",2100 nM and 1600 nM and 2300 nM
same,Kd,"[3]; n=3, read-out: Kd (geometric mean), binding to CRBN-DDB1",2000 nM
